Test results from patent publication EP0236542B1, “Novel organic phosphinic acid compounds” (CYANAMID CANADA INC., priority 1980, dated 1982).
Where two headings read alike, the source gives them in different places.

Assay: pKa determination in 75% isopropanol
Assay type: physicochemical
Settings: product as isolated (assay about 85-88% phosphinic acid)

Compound	pKa (read-out: pKa)	pKa
CC(CC(C)(C)C)CP(=O)(O)C1CCCCC1 (centres unmarked) [2,4,4 -trimethylpentyl, cyclohexylphosphinic acid]	6.04	–
CC(CC(C)(C)C)CP(=O)(O)CC(C)CC(C)(C)C (centres unmarked) [di-2,4,4 -trimethylpentylphosphinic acid]	–	6.03 ± 0.05
